# Patent US20250268903A1, “RXFP1 AGONISTS” (BRISTOL-MYERS SQUIBB COMPANY, priority 2021, published 2025)
# Target: T1, human RXFP1 (Homo sapiens, UniProt Q9HBX9)
# T1 construct: expressed in transfected cells
# T1 sequence (Q9HBX9 1-757): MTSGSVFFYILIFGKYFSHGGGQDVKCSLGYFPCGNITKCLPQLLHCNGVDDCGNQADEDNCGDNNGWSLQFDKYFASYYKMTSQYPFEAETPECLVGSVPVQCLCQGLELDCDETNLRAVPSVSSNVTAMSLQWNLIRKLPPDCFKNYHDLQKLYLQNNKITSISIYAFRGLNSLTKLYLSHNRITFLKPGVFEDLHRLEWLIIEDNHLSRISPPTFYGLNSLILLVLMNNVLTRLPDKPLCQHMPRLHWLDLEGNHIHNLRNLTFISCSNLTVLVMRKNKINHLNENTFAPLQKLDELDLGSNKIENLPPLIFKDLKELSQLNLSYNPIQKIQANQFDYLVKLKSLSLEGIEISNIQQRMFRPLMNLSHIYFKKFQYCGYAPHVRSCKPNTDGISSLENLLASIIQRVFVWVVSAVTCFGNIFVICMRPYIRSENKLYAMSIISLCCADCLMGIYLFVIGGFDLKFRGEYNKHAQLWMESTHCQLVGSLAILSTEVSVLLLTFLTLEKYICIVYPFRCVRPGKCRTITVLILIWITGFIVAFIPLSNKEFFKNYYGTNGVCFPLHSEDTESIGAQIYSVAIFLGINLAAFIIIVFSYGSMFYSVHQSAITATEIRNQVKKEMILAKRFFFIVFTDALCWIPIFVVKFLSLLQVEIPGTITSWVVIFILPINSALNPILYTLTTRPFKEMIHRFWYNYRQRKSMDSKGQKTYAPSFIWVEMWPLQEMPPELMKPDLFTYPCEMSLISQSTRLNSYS
# Assay: hRXFP1 HEK293 cAMP assay (HTRF)
# Type: cell-based
# Details: HEK293 cells stably expressing human RXFP1, 30 min at room temperature
# How it was run: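 Potency and activity come from a four-parameter logistic fit of cAMP against compound concentration, tested from 0.010 nM up to 50 μM. The assay uses HEK293 cells stably expressing human RXFP1, incubated 30 min at ambient temperature with phosphodiesterase inhibitor IBMX present.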
row,EC50 [nM],SMILES
1,194,"COc1ccc(CCCCCCOC(=O)NC2CCC2)cc1C(=O)N[C@@H]1C2CCC(/C2=C/C(F)(F)F)[C@@H]1C(=O)Nc1ccc(F)c(C(F)(F)F)c1 (stereo partly drawn) [Example 101, 6-(3-{[(2R,3S,7Z)-3-{[4-fluoro-3-(trifluoromethyl)phe-nyl]carbamoyl}-7-(2,2,2-trifluoroethylidene)bi-cyclo[2.2.1]heptan-2-yl]carbamoyl}-4-methoxyphenyl)hex-yl N-cyclobutylcarbamate]"
2,439,"COc1ccc(CCCCOC(=O)NC2CCC2)cc1C(=O)N[C@@H]1C2CCC(/C2=C/C(F)(F)F)[C@@H]1C(=O)Nc1ccc(F)c(C(F)(F)F)c1 (stereo partly drawn) [Example 102, 4-(3-{[(2R,3S,7Z)-3-{[4-fluoro-3-(trifluoromethyl)phe-nyl]carbamoyl}-7-(2,2,2-trifluoroethylidene)bi-cyclo[2.2.1]heptan-2-yl]carbamoyl}-4-methoxyphenyl)butyl N-cyclobutylcarbamate]"
3,725,"COc1ccc(CCCCCOC(=O)NC2CCC2)cc1C(=O)N[C@@H]1C2CCC(/C2=C/C(F)(F)F)[C@@H]1C(=O)Nc1ccc(F)c(C(F)(F)F)c1 (stereo partly drawn) [Example 103, 5-(3-{[(2R,3S,7Z)-3-{[4-fluoro-3-(trifluoromethyl)phe-nyl]carbamoyl}-7-(2,2,2-trifluoroethylidene)bi-cyclo[2.2.1]heptan-2-yl]carbamoyl}-4-methoxyphenyl)pent-yl N-cyclobutylcarbamate]"
4,988,COc1ccc(CCCOc2ccncc2)cc1C(=O)NC1C2CCC(/C2=C/C(F)(F)F)[C@@H]1C(=O)Nc1ccc(F)c(C(F)(F)F)c1 (stereo partly drawn) [Example 104]
5,1640,"COc1ccc(CCCOc2nc3ccccc3n2C)cc1C(=O)N[C@@H]1C2CCC(/C2=C/C(F)(F)F)[C@@H]1C(=O)Nc1ccc(F)c(C(F)(F)F)c1 (stereo partly drawn) [Example 105, (2S,3R,7Z)-N-[4-fluoro-3-(trifluoromethyl)phe-nyl]-3-(2-methoxy-5-{3-[(1-methyl-1H-1,3-benzodiazol-2-yl)oxy]propyl}benza-mido)-7-(2,2,2-trifluoroethylidene)bi-cyclo[2.2.1]heptane-2-carboxamide]"
6,377,"O=C(N[C@H]1[C@@H](C(=O)Nc2ccc(F)c(C(F)(F)F)c2)[C@H]2CC[C@@H]1/C2=C\C(F)(F)F)c1cc(C#CCO)ccc1OCCO [Example 106, (1R,2S,3R,4R,Z)—N-(4-fluoro-3-(trifluoromethyl)phenyl)-3-(2-(2-hydroxyethoxy)-5-(3-hydroxyprop-1-yn-1-yl)benzamido)-7-(2,2,2-trifluoroethylidene) bicyclo[2.2.1]heptane-2-carboxamide]"
7,815,"O=C(N[C@@H]1C2CCC(/C2=C/C(F)(F)F)[C@@H]1C(=O)Nc1ccc(F)c(C(F)(F)F)c1)c1cc(CCCO)ccc1OCCO (stereo partly drawn) [Example 107, (2S,3R,7Z)-N-[4-fluoro-3-(trifluoromethyl)phe-nyl]-3-[2-(2-hydroxyethoxy)-5-(3-hydroxypropyl)benz-amido]-7-(2,2,2-trifluoroethylidene)bi-cyclo[2.2.1]heptane-2-carboxamide]"
8,2270,"CCCc1ccc(OCCO)c(C(=O)N[C@@H]2C3CCC(/C3=C/C(F)(F)F)[C@@H]2C(=O)Nc2ccc(F)c(C(F)(F)F)c2)c1 (stereo partly drawn) [Example 108, (2S,3R,7Z)-N-[4-fluoro-3-(trifluoromethyl)phe-nyl]-3-[2-(2-hydroxyethoxy)-5-propylbenzamido]-7-(2,2,2-trifluoroethylidene)bi-cyclo[2.2.1]heptane-2-carboxamide]"
9,2080,COc1ccc(CCCNC(=O)OC(C)(C)C)cc1C(=O)N[C@@H]1C2CCC(/C2=C/C(F)(F)F)[C@@H]1C(=O)Nc1ccc(F)c(C(F)(F)F)c1 (stereo partly drawn) [Example 109]
10,2520,"COc1ccc(CCCN)cc1C(=O)N[C@H]1[C@@H](C(=O)Nc2ccc(F)c(C(F)(F)F)c2)[C@H]2CC[C@@H]1/C2=C\C(F)(F)F [Example 110, (1R,2S,3R,4R,Z)-3-(5-(3-aminopropyl)-2-methoxybenzamido)-N-(4-fluoro-3-(trifluoromethyl)phenyl)-7-(2,2,2-trifluoroethylidene) bicyclo[2.2.1]heptane-2-carboxamide]"
11,106,"COc1ccc(CCCNC(=O)[C@@H](C)O)cc1C(=O)N[C@H]1[C@@H](C(=O)Nc2ccc(F)c(C(F)(F)F)c2)[C@H]2CC[C@@H]1/C2=C\C(F)(F)F [Example 111, (1R,2S,3R,4R,Z)—N-(4-fluoro-3-(trifluoromethyl)phenyl)-3-(5-(3-((R)-2-hydroxypropanamido)propyl)-2-methoxybenzamido)-7-(2,2,2-trifluoroethylidene) bicyclo[2.2.1]heptane-2-carboxamide]"
12,324,"COc1ccc(CCCNC(=O)C2CCC2)cc1C(=O)N[C@@H]1C2CCC(/C2=C/C(F)(F)F)[C@@H]1C(=O)Nc1ccc(F)c(C(F)(F)F)c1 (stereo partly drawn) [Example 112, (2S,3R,7Z)-3-{5-[3-(cyclobutylformami-do)propyl]-2-methoxybenzamido}-N-[4-fluoro-3-(trifluoromethyl)phe-nyl]-7-(2,2,2-trifluoroethylidene)bi-cyclo[2.2.1]heptane-2-carboxamide]"
13,341,"COc1ccc(CCCNC(=O)C(C)(C)O)cc1C(=O)N[C@@H]1C2CCC(/C2=C/C(F)(F)F)[C@@H]1C(=O)Nc1ccc(F)c(C(F)(F)F)c1 (stereo partly drawn) [Example 113, (2S,3R,7Z)-N-[4-fluoro-3-(trifluoromethyl)phe-nyl]-3-{5-[3-(2-hydroxy-2-methylpropanamido)propyl]-2-methoxybenzamido}-7-(2,2,2-trifluoroethylidene)bi-cyclo[2.2.1]heptane-2-carboxamide]"
14,457,COc1ccc(CCCNC(=O)[C@H](C)O)cc1C(=O)N[C@@H]1C2CCC(/C2=C/C(F)(F)F)[C@@H]1C(=O)Nc1ccc(F)c(C(F)(F)F)c1 (stereo partly drawn) [Example 114]
15,536,"COc1ccc(CCCNC(=O)C2CCOCC2)cc1C(=O)N[C@@H]1C2CCC(/C2=C/C(F)(F)F)[C@@H]1C(=O)Nc1ccc(F)c(C(F)(F)F)c1 (stereo partly drawn) [Example 115, N-[3-(3-{[(2R,3S,7Z)-3-{[4-fluoro-3-(trifluoromethyl)phe-nyl]carbamoyl}-7-(2,2,2-trifluoroethylidene)bi-cyclo[2.2.1]heptan-2-yl]carbamoyl}-4-methoxyphenyl)pro-pyl]oxane-4-carboxamide]"
16,940,"COc1ccc(CCCNC(=O)CO)cc1C(=O)N[C@@H]1C2CCC(/C2=C/C(F)(F)F)[C@@H]1C(=O)Nc1ccc(F)c(C(F)(F)F)c1 (stereo partly drawn) [Example 116, (2S,3R,7Z)-N-[4-fluoro-3-(trifluoromethyl)phe-nyl]-3-{5-[3-(2-hydroxyacetamido)pro-pyl]-2-methoxybenzamido}-7-(2,2,2-trifluoroethylidene)bi-cyclo[2.2.1]heptane-2-carboxamide]"
17,1240,"COc1ccc(CCCNCC(O)(C(F)(F)F)C(F)(F)F)cc1C(=O)N[C@H]1[C@@H](C(=O)Nc2ccc(F)c(C(F)(F)F)c2)[C@H]2CC[C@@H]1/C2=C\C(F)(F)F [Example 117, (1R,2S,3R,4R,Z)—N-(4-fluoro-3-(trifluoromethyl)phenyl)-3-(2-methoxy-5-(3-((3,3,3-trifluoro-2-hydroxy-2-(trifluoromethyl)propyl)amino)propyl)benzamido)-7-(2,2,2-trifluoroethylidene) bicyclo[2.2.1]heptane-2-carboxamide]"
18,1780,"COc1ccc(CCCNC[C@H](O)C(F)(F)F)cc1C(=O)N[C@@H]1C2CCC(/C2=C/C(F)(F)F)[C@@H]1C(=O)Nc1ccc(F)c(C(F)(F)F)c1 (stereo partly drawn) [Example 118, (2S,3R,7Z)-N-[4-fluoro-3-(trifluoromethyl)phe-nyl]-3-[2-methoxy-5-(3-{[(2S)-3,3,3-trifluoro-2-hydroxypropyl]amino}propyl)benzamido]-7-(2,2,2-trifluoroethylidene)bi-cyclo[2.2.1]heptane-2-carboxamide]"
19,1800,"COc1ccc(CCCNC[C@@H](O)C(F)(F)F)cc1C(=O)N[C@@H]1C2CCC(/C2=C/C(F)(F)F)[C@@H]1C(=O)Nc1ccc(F)c(C(F)(F)F)c1 (stereo partly drawn) [Example 119, (2S,3R,7Z)-N-[4-fluoro-3-(trifluoromethyl)phe-nyl]-3-[2-methoxy-5-(3-{[(2R)-3,3,3-trifluoro-2-hydroxypropyl]amino}propyl)benzamido]-7-(2,2,2-trifluoroethylidene)bi-cyclo[2.2.1]heptane-2-carboxamide]"
20,304,COc1ccc(CCCN(C(=O)OC(C)(C)C)C2CCC2)cc1C(=O)N[C@@H]1C2CCC(/C2=C/C(F)(F)F)[C@@H]1C(=O)Nc1ccc(F)c(C(F)(F)F)c1 (stereo partly drawn) [Example 120]
21,1070,"COc1ccc(CCCN2CCOCC2)cc1C(=O)N[C@@H]1C2CCC(/C2=C/C(F)(F)F)[C@@H]1C(=O)Nc1ccc(F)c(C(F)(F)F)c1 (stereo partly drawn) [Example 121, (2S,3R,7Z)-N-[4-fluoro-3-(trifluoromethyl)phe-nyl]-3-{2-methoxy-5-[3-(morpholin-4-yl)propyl]benzamido}-7-(2,2,2-trifluoroethylidene)bi-cyclo[2.2.1]heptane-2-carboxamide]"
